From patent US20260116920A1, “HUMAN TRANSFERRIN RECEPTOR BINDING PEPTIDE” (PEPTIDREAM INC., priority 2021, published 2026)
Positions of bridges follow the written chain, without caps; N, C: chain ends. Non-standard residues stand in square brackets, D forms with d. Residues, ends and D or L forms follow the SMILES beside them. Trp(1-CH2COOH) = N[C@@H](Cc1cn(CC(=O)O)c2ccccc12)C(=O)O; NMePhe(3-Cl) = CN[C@@H](Cc1cccc(Cl)c1)C(=O)O; 3Pal(6-NH2) = Nc1ccc(C[C@H](N)C(=O)O)cn1; NMe3Pal = CN[C@@H](Cc1cccnc1)C(=O)O; NMeY = CN[C@@H](Cc1ccc(O)cc1)C(=O)O; 3Pal = N[C@@H](Cc1cccnc1)C(=O)O; 4Pal = N[C@@H](Cc1ccncc1)C(=O)O; PEG4 = NCCOCCOCCOCCOCCC(=O)O

Molecular target: T1, human transferrin receptor (hTfR) (Homo sapiens, UniProt P02786)
T1 construct: made in house
T1 sequence (P02786 89-760 limits assumed): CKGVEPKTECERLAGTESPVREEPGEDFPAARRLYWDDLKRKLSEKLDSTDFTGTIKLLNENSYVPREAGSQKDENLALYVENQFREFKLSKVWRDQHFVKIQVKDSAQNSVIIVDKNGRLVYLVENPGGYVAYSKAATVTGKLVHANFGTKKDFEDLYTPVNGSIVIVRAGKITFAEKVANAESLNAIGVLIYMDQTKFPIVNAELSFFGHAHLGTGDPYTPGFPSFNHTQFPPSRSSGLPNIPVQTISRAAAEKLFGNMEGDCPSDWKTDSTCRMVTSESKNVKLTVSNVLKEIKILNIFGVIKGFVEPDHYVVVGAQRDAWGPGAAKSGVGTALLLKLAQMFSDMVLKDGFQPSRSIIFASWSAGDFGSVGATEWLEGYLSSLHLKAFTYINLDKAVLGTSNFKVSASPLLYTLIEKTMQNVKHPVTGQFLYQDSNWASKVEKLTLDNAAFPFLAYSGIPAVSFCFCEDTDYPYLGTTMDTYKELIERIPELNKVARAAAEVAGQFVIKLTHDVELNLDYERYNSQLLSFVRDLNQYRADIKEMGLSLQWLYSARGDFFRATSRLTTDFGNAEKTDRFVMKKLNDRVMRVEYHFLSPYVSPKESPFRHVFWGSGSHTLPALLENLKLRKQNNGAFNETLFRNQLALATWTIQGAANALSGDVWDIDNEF
Experiment: Evaluation of molecular interaction between transferrin receptor (hTfR) and peptide using surface plasmon resonance (SPR)
Assay type: binding
Settings: surface plasmon resonance, binding to hTfR; KD class symbol; read-out: SPR (KD value)
Method in brief: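 Steps: NTA chip loaded with NiCl2, activated with EDC/NHS, coated with 0.5 μM hTfR dimer, capped with ethanolamine. Peptides diluted from DMSO stock into running buffer (pH 8.0, 1.0% DMSO) at 5–100 nM and injected in single-cycle mode. Sensorgrams fitted to give KD.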

| Kd | Structure (SMILES) |
| --- | --- |
| 1 to 100 nM | CC[C@H](C)[C@@H]1NC(=O)[C@H](Cc2cccnc2)NC(=O)[C@H](Cc2ccc(N)nc2)NC(=O)[C@H](CC(N)=O)NC(=O)[C@H](Cc2cn(CC(=O)O)c3ccccc23)NC(=O)[C@H](C(C)C)NC(=O)[C@H](Cc2cccc(Cl)c2)N(C)C(=O)[C@H](C(C)C)NC(=O)[C@H](C)NC(=O)CSC[C@@H](C(=O)NCCOCCOCCOCCOCCC(N)=O)NC(=O)[C@H](Cc2ccc(O)cc2)N(C)C(=O)[C@H](Cc2ccncc2)NC(=O)[C@H](CCCNC(=N)N)NC(=O)[C@H](CCCNC(=N)N)NC(=O)[C@H]([C@@H](C)CC)NC1=O [compound 49] ({CH2CO}-AV[NMePhe(3-Cl)]V[Trp(1-CH2COOH)]N[3Pal(6-NH2)][3Pal]IIRR[4Pal][NMeY]C[PEG4]-NH2; thioether N-15) |
| 1 to 100 nM | CC[C@H](C)[C@@H]1NC(=O)[C@H](Cc2ccc(OC)cc2)NC(=O)[C@H](Cc2ccc(N)nc2)NC(=O)[C@H](CC(N)=O)NC(=O)[C@H](Cc2cn(CC(=O)O)c3ccccc23)NC(=O)[C@H](C(C)C)NC(=O)[C@H](Cc2cccc(Cl)c2)N(C)C(=O)[C@H](C(C)C)NC(=O)[C@H](C)NC(=O)CSC[C@@H](C(=O)NCCOCCOCCOCCOCCC(N)=O)NC(=O)[C@H](Cc2ccc(O)cc2)N(C)C(=O)[C@H](Cc2ccncc2)NC(=O)[C@H](CCCNC(=N)N)NC(=O)[C@H](CCCNC(=N)N)NC(=O)[C@H]([C@@H](C)CC)NC1=O [compound 50] |
| 1 to 100 nM | CC[C@H](C)[C@@H]1NC(=O)[C@H](Cc2cccnc2)NC(=O)[C@H](Cc2ccc(O)cc2)NC(=O)[C@H](CC(N)=O)NC(=O)[C@H](Cc2c[nH]c3ccccc23)NC(=O)[C@H](C(C)C)NC(=O)[C@H](Cc2cccc(Cl)c2)N(C)C(=O)[C@H](C(C)C)NC(=O)[C@H](C)NC(=O)CSC[C@@H](C(=O)NCCOCCOCCOCCOCCC(N)=O)NC(=O)[C@H](Cc2ccc(O)cc2)N(C)C(=O)[C@H](Cc2ccncc2)NC(=O)[C@H](CCCNC(=N)N)NC(=O)[C@H](CCCNC(=N)N)NC(=O)[C@H]([C@@H](C)CC)NC1=O [compound 51] ({CH2CO}-AV[NMePhe(3-Cl)]VWNY[3Pal]IIRR[4Pal][NMeY]C[PEG4]-NH2; thioether N-15) |
| 1 to 100 nM | CC[C@H](C)[C@@H]1NC(=O)[C@H](Cc2cccnc2)NC(=O)[C@H](Cc2ccc(N)nc2)NC(=O)[C@H](CC(N)=O)NC(=O)[C@H](Cc2c[nH]c3ccccc23)NC(=O)[C@H](C(C)C)NC(=O)[C@H](Cc2cccc(Cl)c2)N(C)C(=O)[C@H](C(C)C)NC(=O)[C@H](C)NC(=O)CSC[C@@H](C(=O)NCCOCCOCCOCCOCCC(N)=O)NC(=O)[C@H](Cc2ccc(O)cc2)N(C)C(=O)[C@H](Cc2ccncc2)NC(=O)[C@H](CCCNC(=N)N)NC(=O)[C@H](CCCNC(=N)N)NC(=O)[C@H]([C@@H](C)CC)NC1=O [compound 52] ({CH2CO}-AV[NMePhe(3-Cl)]VWN[3Pal(6-NH2)][3Pal]IIRR[4Pal][NMeY]C[PEG4]-NH2; thioether N-15) |
| 1 to 100 nM | CC[C@H](C)[C@@H]1NC(=O)[C@H](Cc2ccc(OC)cc2)NC(=O)[C@H](Cc2ccc(N)nc2)NC(=O)[C@H](CC(N)=O)NC(=O)[C@H](Cc2c[nH]c3ccccc23)NC(=O)[C@H](C(C)C)NC(=O)[C@H](Cc2cccc(Cl)c2)N(C)C(=O)[C@H](C(C)C)NC(=O)[C@H](C)NC(=O)CSC[C@@H](C(=O)NCCOCCOCCOCCOCCC(N)=O)NC(=O)[C@H](Cc2ccc(O)cc2)N(C)C(=O)[C@H](Cc2ccncc2)NC(=O)[C@H](CCCNC(=N)N)NC(=O)[C@H](CCCNC(=N)N)NC(=O)[C@H]([C@@H](C)CC)NC1=O [compound 53] |
| 1 to 100 nM | CC[C@H](C)[C@@H]1NC(=O)[C@H](Cc2ccncc2)NC(=O)[C@H](Cc2ccc(O)cc2)NC(=O)[C@H](CC(N)=O)NC(=O)[C@H](Cc2c[nH]c3ccccc23)NC(=O)[C@H](C(C)C)NC(=O)[C@H](Cc2cccc(Cl)c2)N(C)C(=O)[C@H](C(C)C)NC(=O)[C@H](C)NC(=O)CSC[C@@H](C(=O)NCCOCCOCCOCCOCCC(N)=O)NC(=O)[C@H](Cc2ccc(O)cc2)N(C)C(=O)[C@H](Cc2ccncc2)NC(=O)[C@H](CCCNC(=N)N)NC(=O)[C@H](CCCNC(=N)N)NC(=O)[C@H]([C@@H](C)CC)NC1=O [compound 54] ({CH2CO}-AV[NMePhe(3-Cl)]VWNY[4Pal]IIRR[4Pal][NMeY]C[PEG4]-NH2; thioether N-15) |
| 1 to 100 nM | CC[C@H](C)[C@@H]1NC(=O)[C@H](Cc2ccc(OC)cc2)NC(=O)[C@H](Cc2ccc(O)cc2)NC(=O)[C@H](CC(N)=O)NC(=O)[C@H](Cc2c[nH]c3ccccc23)NC(=O)[C@H](C(C)C)NC(=O)[C@H](Cc2cccnc2)N(C)C(=O)[C@H](C(C)C)NC(=O)[C@H](C)NC(=O)CSC[C@@H](C(=O)NCCOCCOCCOCCOCCC(N)=O)NC(=O)[C@H](Cc2ccc(O)cc2)N(C)C(=O)[C@H](Cc2ccccc2)NC(=O)[C@H](CCCNC(=N)N)NC(=O)[C@H](CCCNC(=N)N)NC(=O)[C@H]([C@@H](C)CC)NC1=O [compound 55] |
| 1 to 100 nM | CC[C@H](C)[C@@H]1NC(=O)[C@H](Cc2ccc(OC)cc2)NC(=O)[C@H](Cc2ccc(O)cc2)NC(=O)[C@H](CC(N)=O)NC(=O)[C@H](Cc2c[nH]c3ccccc23)NC(=O)[C@H](C(C)C)NC(=O)[C@H](Cc2ccncc2)N(C)C(=O)[C@H](C(C)C)NC(=O)[C@H](C)NC(=O)CSC[C@@H](C(=O)NCCOCCOCCOCCOCCC(N)=O)NC(=O)[C@H](Cc2ccc(O)cc2)N(C)C(=O)[C@H](Cc2ccccc2)NC(=O)[C@H](CCCNC(=N)N)NC(=O)[C@H](CCCNC(=N)N)NC(=O)[C@H]([C@@H](C)CC)NC1=O [compound 56] |
| 1 to 100 nM | CC[C@H](C)[C@@H]1NC(=O)[C@H](Cc2ccc(OC)cc2)NC(=O)[C@H](Cc2ccc(N)nc2)NC(=O)[C@H](CC(N)=O)NC(=O)[C@H](Cc2c[nH]c3ccccc23)NC(=O)[C@H](C(C)C)NC(=O)[C@H](Cc2cccc(Cl)c2)N(C)C(=O)[C@H](C(C)C)NC(=O)[C@H](C)NC(=O)CSC[C@@H](C(=O)NCCOCCOCCOCCOCCC(N)=O)NC(=O)[C@H](Cc2ccc(O)cc2)N(C)C(=O)[C@H](Cc2ccccc2)NC(=O)[C@H](CCCNC(=N)N)NC(=O)[C@H](CCCNC(=N)N)NC(=O)[C@H]([C@@H](C)CC)NC1=O [compound 57] ({CH2CO}-AV[NMePhe(3-Cl)]VWN[3Pal(6-NH2)]Y(Me)IIRRF[NMeY]C[PEG4]-NH2; thioether N-15) |
| 1 to 100 nM | CC[C@H](C)[C@@H]1NC(=O)[C@H](Cc2ccc(OC)cc2)NC(=O)[C@H](Cc2ccc(O)cc2)NC(=O)[C@H](CC(N)=O)NC(=O)[C@H](Cc2c[nH]c3ccccc23)NC(=O)[C@H](C(C)C)NC(=O)[C@H](Cc2cccnc2)N(C)C(=O)[C@H](C(C)C)NC(=O)[C@H](C)NC(=O)CSC[C@@H](C(=O)NCCOCCOCCOCCOCCC(N)=O)NC(=O)[C@H](Cc2ccc(O)cc2)N(C)C(=O)[C@H](Cc2ccncc2)NC(=O)[C@H](CCCNC(=N)N)NC(=O)[C@H](CCCNC(=N)N)NC(=O)[C@H]([C@@H](C)CC)NC1=O [compound 58] ({CH2CO}-AV[NMe3Pal]VWNYY(Me)IIRR[4Pal][NMeY]C[PEG4]-NH2; thioether N-15) |
| < 1 nM | CC[C@H](C)[C@@H]1NC(=O)[C@H](Cc2ccc(OC)cc2)NC(=O)[C@H](Cc2ccc(O)cc2)NC(=O)[C@H](CC(N)=O)NC(=O)[C@H](Cc2c[nH]c3ccccc23)NC(=O)[C@H](C(C)C)NC(=O)[C@H](Cc2cccc(Cl)c2)N(C)C(=O)[C@H](C(C)C)NC(=O)[C@H](C)NC(=O)CSC[C@@H](C(=O)NCCOCCOCCOCCOCCC(N)=O)NC(=O)[C@H](Cc2ccc(O)cc2)N(C)C(=O)[C@H](Cc2ccncc2)NC(=O)[C@H](CCCNC(=N)N)NC(=O)[C@H](CCCNC(=N)N)NC(=O)[C@H]([C@@H](C)CC)NC1=O [compound 59] |
